Test systems include UACC-62 melanoma; BT-549 breast; NCI-H23 lung; RPMI-8226 leukemia; A498 renal; OVCAR-4 ovarian; CAKI-1 renal; T-47D breast; SF-539 CNS; SNB-75 CNS; MDA-MB-435.
Holding throughout (assay): DTP human tumour cell line panel, 48 h

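Method: 48-hour compound exposure of cells in 96-well plates, five concentrations, linear interpolation of endpoints. GI50: concentration for 50% inhibition of growth. TGI is the concentration that stops growth completely.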 A value given as a limit tells only on which side of the number the result lay.

For the compound `Cc1ccc(S(=O)(=O)OCC(=O)O)cc1`, the TGI with UACC-62 melanoma, in the assay with BT-549 breast, in the assay on NCI-H23 lung, in the assay on RPMI-8226 leukemia, in the assay with A498 renal and with OVCAR-4 ovarian was more than 100 µM each time. In addition, the TGI with CAKI-1 renal and with T-47D breast was more than 100 µM in each case.

With `O=C1c2ccccc2-c2nc(-c3cccc([N+](=O)[O-])c3)nnc21`, the concentration for total growth inhibition (TGI) (in general, the concentration at which net growth stops) in the assay with UACC-62 melanoma was 32 µM; in the assay on SF-539 CNS, more than 100 µM; in the assay with BT-549 breast it was 36.7 µM; with NCI-H23 lung it was 50.5 µM; in the assay with RPMI-8226 leukemia, more than 100 µM; with SNB-75 CNS, 59 µM. Further, the TGI in the assay on MDA-MB-435 was 4.05 µM; with OVCAR-4 ovarian, more than 100 µM; in the assay with CAKI-1 renal it was 12.6 µM; with T-47D breast, more than 100 µM.

As to `C1CNCCNCCN1`, the TGI with UACC-62 melanoma, in the assay on SF-539 CNS, in the assay on BT-549 breast, with NCI-H23 lung, in the assay with RPMI-8226 leukemia and in the assay on MDA-MB-435 was more than 100 µM in each case. Moreover, the TGI with A498 renal, in the assay with OVCAR-4 ovarian, in the assay on CAKI-1 renal and with T-47D breast was more than 100 µM throughout.

`O=c1[nH]nc(Cc2ccc([N+](=O)[O-])cc2)n1CCO`: the TGI in the assay on UACC-62 melanoma, with SF-539 CNS, in the assay with BT-549 breast, in the assay with NCI-H23 lung, in the assay with RPMI-8226 leukemia and in the assay with MDA-MB-435 was more than 100 µM each time. In addition, the TGI in the assay with A498 renal, with OVCAR-4 ovarian, with CAKI-1 renal and in the assay with T-47D breast was more than 100 µM in each case.

In the case of `CCN1C(=O)C(=C/C=C/c2ccc([N+](=O)[O-])cc2)C(=O)N(CC)C1=S`, the total growth inhibition concentration (TGI) in the assay on UACC-62 melanoma is 34.7 µM; in the assay with SF-539 CNS, 40.1 µM; with BT-549 breast it was 32.5 µM; in the assay with NCI-H23 lung, 32.8 µM; in the assay with RPMI-8226 leukemia it was 95.8 µM; in the assay with MDA-MB-435 it was 47.7 µM. Besides, the TGI with OVCAR-4 ovarian is more than 100 µM; in the assay on CAKI-1 renal, 68.7 µM; in the assay with T-47D breast, more than 100 µM.

With `CCC(C#N)NC(=O)NC(C#N)CC` (stereo not drawn), the TGI with UACC-62 melanoma, in the assay on SF-539 CNS, with BT-549 breast, in the assay on NCI-H23 lung, in the assay on RPMI-8226 leukemia and in the assay on MDA-MB-435 was more than 100 µM throughout. The TGI in the assay on A498 renal, with OVCAR-4 ovarian, with CAKI-1 renal and with T-47D breast was more than 100 µM in each case.

Regarding `O=c1c2c([N+](=O)[O-])cccc2nc2[nH]c3ccccc3n12`, the TGI in the assay on UACC-62 melanoma is more than 75 µM; in the assay with SF-539 CNS, 25.3 µM; with BT-549 breast, 51.1 µM; with NCI-H23 lung, more than 75 µM; with RPMI-8226 leukemia, more than 75 µM; in the assay with MDA-MB-435 it was more than 75 µM. For the same compound, the TGI with A498 renal is more than 75 µM; in the assay with OVCAR-4 ovarian it was 23.9 µM; in the assay with CAKI-1 renal, 45 µM; in the assay on T-47D breast, 63.4 µM.

On to `Nc1cccc(Nc2nc3ccccc3nc2NS(=O)(=O)c2ccccc2)c1`, for which the TGI with UACC-62 melanoma is 46.1 µM; in the assay with SF-539 CNS, 45.3 µM; in the assay with BT-549 breast it was 44.9 µM; in the assay on NCI-H23 lung, 42.6 µM; in the assay with RPMI-8226 leukemia it was 52.5 µM; in the assay on SNB-75 CNS, more than 100 µM. Also, the TGI with MDA-MB-435 is 62.4 µM; in the assay with OVCAR-4 ovarian, 46.5 µM; with CAKI-1 renal, 80.3 µM; in the assay with T-47D breast, more than 100 µM.

With `COC(=O)C1=C(C(=O)OC)SC2(S1)C1=C(CCCC1)SC(C(=O)OC)=C2C(=O)OC`, the TGI in the assay with UACC-62 melanoma came to 25.7 µM; with SF-539 CNS it was 4.27 µM; in the assay with BT-549 breast, 25.1 µM; in the assay with NCI-H23 lung, 31.3 µM; in the assay with RPMI-8226 leukemia, 17.7 µM; in the assay with MDA-MB-435, 10 µM. Also, the TGI with A498 renal came out at 19.4 µM; in the assay on OVCAR-4 ovarian, 25.3 µM; in the assay on CAKI-1 renal it was 13.5 µM; with T-47D breast, 13.5 µM.

As to `Nn1c(CCCCCCCCc2nnc(COc3ccc(Cl)cc3)n2N)nnc1COc1ccc(Cl)cc1`, the TGI in the assay with UACC-62 melanoma, with BT-549 breast, in the assay with NCI-H23 lung, in the assay with RPMI-8226 leukemia, in the assay on SNB-75 CNS and in the assay with MDA-MB-435 was more than 100 µM throughout. The TGI in the assay with A498 renal was more than 100 µM; in the assay on OVCAR-4 ovarian, more than 100 µM; in the assay with CAKI-1 renal, 35.6 µM.

With `O=C(OCC1OC2OC(c3ccccc3)(n3ccc4c([N+](=O)[O-])ccnc43)OC2C1OC(=O)c1ccccc1)c1ccccc1` (stereo not drawn), the TGI with UACC-62 melanoma, in the assay with BT-549 breast, in the assay with NCI-H23 lung, in the assay with RPMI-8226 leukemia, in the assay with MDA-MB-435 and in the assay with A498 renal was more than 100 µM throughout. For the same compound, the TGI with OVCAR-4 ovarian, in the assay with CAKI-1 renal and with T-47D breast was more than 100 µM in each case.

Take `CN(NC(=O)c1cccs1)C1=NCCCN1`: the TGI in the assay on UACC-62 melanoma, in the assay on SF-539 CNS, with BT-549 breast, in the assay with NCI-H23 lung, with RPMI-8226 leukemia and in the assay with SNB-75 CNS was more than 100 µM throughout. For the same compound, the TGI with MDA-MB-435, in the assay with A498 renal, with OVCAR-4 ovarian and in the assay on T-47D breast was more than 100 µM in each case.

Turning to `C[C@]12CCc3nc(Nc4ccccc4)sc3C1=CC[C@@H]1[C@@H]2CC[C@]2(C)/C(=N/NC(N)=S)CC[C@@H]12`, the GI50 (in general, the concentration that inhibits growth by half) with UACC-62 melanoma was 5.85 µM; with BT-549 breast it was 3.26 µM; in the assay on NCI-H23 lung it was 6.15 µM; in the assay with RPMI-8226 leukemia, 1.61 µM; with MDA-MB-435 it was 3.05 µM; in the assay with A498 renal it was 1.39 µM. The GI50 in the assay with OVCAR-4 ovarian was 7.86 µM; in the assay on T-47D breast, 2.85 µM. For the same compound, the TGI with UACC-62 melanoma is more than 100 µM; with BT-549 breast, more than 100 µM; in the assay on NCI-H23 lung, more than 100 µM; with RPMI-8226 leukemia, 6.61 µM; in the assay with MDA-MB-435, more than 100 µM; in the assay on A498 renal it was more than 100 µM. Besides, the TGI with OVCAR-4 ovarian and in the assay with T-47D breast was more than 100 µM in each case.

For `Cc1cc(C2(O)C=C(C(C)(C)C)C(=O)C(C(C)(C)C)=C2)c(C)cc1C1(O)C=C(C(C)(C)C)C(=O)C(C(C)(C)C)=C1`, the TGI in the assay with UACC-62 melanoma, with SF-539 CNS, with BT-549 breast, with NCI-H23 lung, in the assay with RPMI-8226 leukemia and with SNB-75 CNS was more than 100 µM each time. The TGI in the assay on OVCAR-4 ovarian, with CAKI-1 renal and in the assay with T-47D breast was more than 100 µM in each case.

With `CCOC(=O)/C=C(/C(=O)OCC)n1ccc(N)nc1=O`, the TGI in the assay on UACC-62 melanoma, with SF-539 CNS, in the assay with BT-549 breast, in the assay with NCI-H23 lung, in the assay with RPMI-8226 leukemia and in the assay on SNB-75 CNS was more than 100 µM throughout. Further, the TGI with MDA-MB-435, with OVCAR-4 ovarian, in the assay with CAKI-1 renal and in the assay with T-47D breast was more than 100 µM in each case.

As for `Cc1ccc(-c2cc(N)n(-c3nc4c(c(=O)n(C)c(=O)n4C)n3C)n2)cc1`, the TGI in the assay on UACC-62 melanoma, in the assay on SF-539 CNS, in the assay with BT-549 breast, with NCI-H23 lung, in the assay on RPMI-8226 leukemia and in the assay on MDA-MB-435 was more than 100 µM throughout. The TGI with A498 renal, in the assay with OVCAR-4 ovarian, with CAKI-1 renal and in the assay with T-47D breast was more than 100 µM in each case.

For the compound `CC1CCOc2ccc(cc2)C=Nc2ccc(cc2)CCc2ccc(cc2)N=Cc2ccc(cc2)OCC1` (stereo not drawn), the TGI in the assay with UACC-62 melanoma is more than 100 µM; in the assay on SF-539 CNS, more than 100 µM; with BT-549 breast, more than 100 µM; in the assay on NCI-H23 lung it was more than 100 µM; with RPMI-8226 leukemia, more than 100 µM; with SNB-75 CNS it was 77.3 µM. For the same compound, the TGI with MDA-MB-435, in the assay on A498 renal, in the assay on OVCAR-4 ovarian and in the assay on CAKI-1 renal was more than 100 µM each time.

`COc1cc(C2SCC(=O)N2c2ccc(-c3ccc(-n4c(-c5ccccc5)nc5ccccc5c4=O)cc3)cc2)cc(OC)c1OC` (stereo not drawn): the TGI in the assay on UACC-62 melanoma was more than 100 µM; in the assay on SF-539 CNS, more than 100 µM; with BT-549 breast it was 55.4 µM; in the assay with NCI-H23 lung it was more than 100 µM; with RPMI-8226 leukemia it was more than 100 µM; in the assay on MDA-MB-435, more than 100 µM. Moreover, the TGI in the assay with A498 renal was more than 100 µM; in the assay with OVCAR-4 ovarian, more than 100 µM; in the assay with CAKI-1 renal, 45.8 µM; in the assay with T-47D breast, more than 100 µM.

As for `Cc1cc(C)cc(Nc2cc(=O)[nH]c(=O)[nH]2)c1`, the TGI in the assay with SF-539 CNS, in the assay on BT-549 breast, in the assay with NCI-H23 lung, with RPMI-8226 leukemia, in the assay on SNB-75 CNS and with MDA-MB-435 was more than 100 µM throughout. The TGI with A498 renal, in the assay on OVCAR-4 ovarian and in the assay with T-47D breast was more than 100 µM throughout.

With `COC(=O)C1=CC(=O)OC1(OO)c1ccccc1` (stereo not drawn), the TGI in the assay on UACC-62 melanoma, with SF-539 CNS, in the assay with BT-549 breast, in the assay with NCI-H23 lung, in the assay with SNB-75 CNS and with MDA-MB-435 was more than 100 µM each time. The TGI in the assay on OVCAR-4 ovarian, with CAKI-1 renal and in the assay with T-47D breast was more than 100 µM in each case.

Values taken from PubChem BioAssay (NCI).
